Tests used:
bone and bone marrow = test: In vivo biopanning with 12-mer peptide phage display library; design: species or system BALB/c mice; details: for PERCENT FREQUENCY: phage eluted from bone and bone marrow; for PHAGE SEQUENCE FREQUENCY (number of times the sequence was found in a group of plaques): phage eluted from bone and bone marrow after repeated rounds
Text: The Ph.D.-12 Phage Display Peptide Library Kit (New England Biolabs, Beverly, Mass.) used in this study is based on a combinatorial library of random peptide 12-mers fused to a minor coat protein (pIII). […] The peptide is followed by a short spacer of four amino acid residues, the first three residues of which are glycine and the fourth of which is serine, and then the wild-type III sequence. The library consists of approximately 2.7×10^9 electroporated sequences, amplified once to yield approximately 55 copies of each sequence.
For in vivo biopanning, BALB/c mice 8 weeks of age were injected 3.4×10^10 pfu of phage into the heart. The animals were euthanized after 5 minutes, and the tissues (bone, bone marrow, kidney, liver, and spleen) were collected for analysis. The bound phage was eluted according the manufacturer's instructions. The eluted phage was titered, amplified, purified, and injected again at the same concentration.
The frequency of each peptide in bone and bone marrow was compared with its location in other tissues such as liver, kidney, lung, spleen, and brain. Thirteen unique peptide sequences eluted from bone and marrow were identified were identified by sequencing phage DNA. The peptides were synthesized using the polystyrene solid support on a Protein Technologies Symphony Multiple Channel Synthesizer.

[1] = system: Unicortical femoral defects; test: Peptide-mediated osteogenesis in cortical bone defects (Example 8); format: in vivo, Fisher 344 rats; details: 100 mM peptide in gelfoam, two weeks postoperatively; for Effectiveness at stimulating osteogenesis and cortical bone repair: versus gelfoam+PBS
Description: In an in vivo study, all 13 peptides at a concentration of 100 mM were tested for their ability to potentiate osteogenesis. A gelfoam cylinder 1.5 mm in diameter 2 mm in length was used as carrier for the peptides. Unicortical femoral defects 1.5 mm in diameter were created bilaterally in Fisher 344 rats; the left femoral defect was filled with gelfoam+PBS (Control), and the right femur with gelfoam+peptide. The samples were harvested and examined two weeks postoperatively. To examine the effect of peptide concentration on cortical bone regeneration, peptide L7 (SEQ ID NO:5) was used at 1, 5, and 20 mM. […] The time course of cortical bone repair with 20 mM L7 was examined at 5, 10, 15, and 20 days.

[2] = system: bovine aortic endothelial cells; test: Effect of peptides on adherent bovine aortic endothelial cells on fibronectin or collagen; format: cell-based; details: 0.1M biotinylated peptide, 1 hour; cells adhered four hours on fibronectin or collagen
Description: Peptides from the phage display project were added to bovine aortic endothelial cells in culture. The endothelial cells had adhered to a surface coated with collagen or with fibronectin.
Experiment 1: Bovine aortic endothelial cells were plated on glass slides that were coated either fibronectin or collagen. The cell density was 5,000 cells/well. After the cells adhered for four hours, 0.1M of biotinylated peptide was added to each well. The following peptides were used: L1, L2, L5, L6, L7, L12, L13, L14, L19, R1, R3, and R8.
To perform this experiment, the media was removed and the cells were rinsed with 1×PBS plus 1% BSA three times. Peptides were diluted in 1×PBS plus 1% BSA, added to cells and incubated for 1 hour. The cells were rinsed three times with 1% BSA in PBS, and fixed with 2% parafomaldehyde. Aldehyde groups were blocked with 0.2 M HCl-glycine in PBS, the cells were rinsed three times with 1% BSA in PBS and ExtrAvidin-FITC (1:200 dilution) was added and incubated overnight at 4° C. The cells were rinsed three times with 1% BSA in PBS. The chambers and the gasket were removed from each slide, Vectashield was added, covered and viewed on a Nikon microscope. Images were acquired using a Coolsnap digital camera and Metavue software. […]
Experiment 3: The cells were adherent for about 6 hours and peptides at various concentrations were added to the cells. The concentrations of each of the peptides used in this experiment were: 0.1M, 0.01M, 0.001M and 0.0001M biotinylated peptide. The following peptides were tested: L1, L5, L6, L7, L13, L14, R1, R3, R8, DIP1 and PBS control (SEQ ID NOs:1, 3, 4, 5, 8, 9, 11, 13, 14, and 29).

Row | Substance | PERCENT FREQUENCY (bone and bone marrow) | PHAGE SEQUENCE FREQUENCY (number of times the sequence was found in a group of plaques) (bone and bone marrow) | Effectiveness at stimulating osteogenesis and cortical bone repair [1] | Effect on adherent BAEC (Experiment 1) [2] | Histological appearance of repair tissue in the defect [1]
1 | ASN-ASN-VAL-SER-GLN-LYS-TRP-GLN-GLN-ARG-LEU-ILE-GLY-GLY-GLY-SER (NNVSQKWQQRLIGGGS; listed as Homo sapiens) [Peptide L6] | 17.9% | 5/28 | most effective at stimulating osteogenesis and cortical bone repair | the cells had lifted completely and most of the cells disappeared from the surface of the slides, leaving a lot of cell debris | 
2 | GLY-ILE-HIS-VAL-PRO-TRP-MET-PRO-PRO-VAL-ALA-PHE-GLY-GLY-GLY-SER (GIHVPWMPPVAFGGGS; listed as Homo sapiens) [Peptide L11] | 3.3% | 1/30 |  |  | 
3 | LEU-PRO-TRP-THR-GLU-PRO-SER-PHE-TRP-ARG-THR-PRO-GLY-GLY-GLY-SER (LPWTEPSFWRTPGGGS; homo sapiens) [Peptide D1P1] |  |  |  | no effect, with results similar to PBS | 
4 | LYS-GLU-ILE-PRO-PRO-ILE-PRO-LEU-LEU-ALA-PRO-SER-GLY-GLY-GLY-SER (KEIPPIPLLAPSGGGS; listed as Homo sapiens) [Peptide L5] | 17.9% | 5/28 | virtually no stimulatory effect on osteogenesis | the cells had lifted completely and most of the cells disappeared from the surface of the slides, leaving a lot of cell debris | while some ossification and cortical bone regeneration has occurred, considerable amounts of gelfoam remains in the defect
5 | SER-SER-THR-LEU-LYS-THR-PHE-PHE-GLY-PHE-PRO-ASP-GLY-GLY-GLY-SER (SSTLKTFFGFPDGGGS; listed as Homo sapiens) [Peptide L14] | 40.0% | 12/30 | least effective for cortical bone repair | no effect, with results similar to PBS | a considerable amount of gelfoam remaining in the defects, with thinner and more loosely organized cortical bone

Reference: patent US7871978B2, “Bone tropic peptides” (University of Virginia Patent Foundation, priority 2004, dated 2011)
